Test results as given in patent publication US20230372288A1, “Application of Aristolochic Acid IVa in Preparation of Antihistamine or Drug for Treating Pneumonia” (priority 2022, published 2023).

Assays:
[1] = tested on: ICR mice; assay: Toxicity test, single gavage, death within 14 days and renal pathology; type: in vivo; conditions: 40 mg/kg once by gavage; for Death rate / Number of dead animals: 10 animals, within 14 days; for Renal pathological examination: survived animals after 14 days
Experimental: SPF-grade ICR mice are used, 18-22 g, with half male and half female. The animals are sourced from Beijing Vital River Laboratory Animal Technology Co., Ltd. After 1 day of adaptive feeding, the test substance is administered.
The mice are randomly divided into 4 groups: a control group (physiological saline is administered once by gavage) (1); an AA-I group (40 mg/kg of AA-I is administered once by the gavage) (2); an AA-II group (40 mg/kg of AA-II is administered once by the gavage) (3); and an AA-Iva group (40 mg/kg of AA-IVa is administered once by the gavage) (4).
Before the animals are administered by the gavage, it is fasted for 12 h without water deprivation. After being administered by the gavage, the animal death conditions within 14 days are recorded after the gavage administration. Survived animals are dissected, and kidneys are taken for the pathological examination.

[2] = tested on: histamine-induced increase in mouse vascular permeability; assay: Histamine-induced increase in auricular vascular permeability, EB exudation test; type: in vivo, ICR mice; conditions: for Ear blue staining compared with histamine model group: observed within 30 min after histamine; for Amount of EB exudation: histamine 5 mg/kg tail vein on 4th day, both ears, n = 10, mean ± SD; for EB exudation reduction rate: histamine 5 mg/kg, vs histamine group
Experimental: ICR mice are divided into 6 groups, including a negative control group (control): physiological saline is administered by gavage for 3 days, and on the 4th day, the physiological saline is administered by tail vein injection; a histamine model group (histamine): the physiological saline is administered by the gavage for 3 days, and 5 mg/kg of the histamine is administered by the tail vein injection on the 4th day; an AA-IVa low-dose treatment group (histamine+AA-IVa/L): 5 mg/kg of AA-IVa is administered by the gavage for 3 days, and 5 mg/kg of the histamine is administered by the tail vein injection on the 4th day; and an AA-IVa high-dose treatment group (histamine+AA-IVa/H): 10 mg/kg of AA-IVa is administered by the gavage for 3 days, and 5 mg/kg of the histamine is administered by the tail vein injection on the 4th day.
AA-Iva: 0.5 wt % CMC-Na is used for preparation, and the concentration is 0.5 mg/ml and 0.25 mg/ml respectively. Histamine: 0.5 mg/ml of histamine solution is prepared with the physiological saline.
4.3 Modeling Method • (1) Principle: the histamine may cause an increase in permeability of capillary and venule walls, and plasma leaks into tissues, leading to local tissue edema. EB is a commonly used indicator for detecting the vascular permeability. After intravenous injection of mixed solution of histamine and EB into the mice, the increase in the vascular permeability caused by the histamine may be observed in a mouse auricle (the auricle is stained blue). • (2) Method for establishing model of increased auricular vascular permeability induced by histamine: after the histamine (0.5 mg/ml) is mixed with 0.8% EB solution at a ratio of 1:1 (volume), the tail vein injection is performed at 20 ml/kg of a volume according to the weight of each mouse. The auricular blue staining condition of the mouse is observed within 30 min after the histamine is administered, and a picture of the auricular blue staining is taken. • (3) Auricular vascular permeability test (EB exudation test): after the above auricular blue staining is observed and photographed, both ears are cut, and cut into pieces. After being soaked in 2 ml of formamide at a room temperature for 48 h, it is filtered with a 200-mesh stainless steel sieve. A filtrate is taken, and the absorbance (A) is measured at 610 nm. According to an EB standard curve, the amount (μg) of EB dye exudation is calculated.
EB exudation reduction rate (%)=(average value of EB exudation in histamine group−average value of EB exudation in administration group)/average value of EB exudation in histamine group×100%.
Statistical analysis is performed by using SPSS 20.0 software. The variance analysis is performed on the amount of EB exudation from the auricle tissue by using an ANOVA program. Data is expressed as mean±standard deviation (x±S), the histamine model group is compared with the control group, and each administration group is compared with the histamine model group, P<0.05 is considered as a significant difference.
ICR mice are divided into 4 groups, including a negative control group (control) (1): physiological saline is administered by gavage for 3 days, and on the 4th day, the physiological saline is administered by tail vein injection; a histamine model group (histamine) (2): the physiological saline is administered by the gavage for 3 days, and on the 4th day, 5 mg/kg of the histamine is administered by the tail vein injection; an AA-I treatment group (histamine+AA-I) (3): 10 mg/kg of AA-I is administered by the gavage for 3 days, and on the 4th day, 5 mg/kg of the histamine is administered by the tail vein injection; and an AA-II treatment group (histamine+AA-II) (4): 10 mg/kg of AA-II is administered by the gavage for 3 days, and on the 4th day, 5 mg/kg of the histamine is administered by the tail vein injection.
Preparation of AA-I and AA-II: 0.5 wt % CMC-Na is used to prepare AA-I and AA-II into 0.5 mg/ml respectively.

[3] = tested on: histamine-induced pneumonia (lung tissue inflammatory exudation); assay: Histamine-induced pneumonia, pathological examination of lung tissue; type: in vivo, ICR mice; conditions: histamine 5 mg/kg, HE pathology
From the text: 1. Experimental Method • (1) Model establishment, animal grouping and administration are the same as Embodiment 1. • (2) Pathological examination of lung tissue: after the mouse is euthanized due to vertebral detachment, it is dissected, and the lung tissue is taken out. The lung tissue is fixed with 10% neutral formalin for standby. After being fully fixed with formaldehyde, the submitted tissue is dehydrated step by step with ethanol, transparent with xylene, embedded with paraffin, and prepared conventionally into 3 μm of a paraffin section. HE, Masson, and PAS staining are used respectively, and the tissue inflammation exudation conditions are examined under an optical microscope (DP71 type, OLYMPUS, magnified by 400 times).
1. Experimental Method • (1) Model establishment, animal grouping and administration are the same as Contrast example 1. • (2) Pathological examination of lung tissue: same as Embodiment 2.

[4] = drug 10 mg/kg by gavage for 3 days
[5] = drug 5 mg/kg by gavage for 3 days

Q: `O=C(O)c1cc2c(c3c1c([N+](=O)[O-])cc1ccccc13)OCO2` [AA-II, Aristolochic Acid II] was tested. Which Death rate [1] did it give?
A: The Death rate was 10%.

Q: What about the “Number of dead animals” value [1] of the same compound?
A: Its value is 1.

Q: What about the Renal pathological examination [1] of the same compound?
A: Its Renal pathological examination is “patchy tubular necrosis and tubular swelling”.

Q: And the “Amount of EB exudation compared to histamine model group (in words)” value ([2]; 10 mg/kg by gavage for 3 days)?
A: Its value is “no significant difference”.

Q: And the “Ear blue staining compared with histamine model group” value ([2]; 10 mg/kg by gavage for 3 days)?
A: Its value is “no significant difference”.

Q: What about the “Amount of EB exudation” value [2, 4] of the same compound?
A: The value was 1.09 ± 0.34 µg.

Q: And the “EB exudation reduction rate” value [2, 4]?
A: The value was 7.6%.

Q: And the “Thickening of alveolar septa and exudation of inflammatory cells in lung tissue compared to model group” value (“Thickening … compared to model group” below) ([3]; 10 mg/kg by gavage for 3 days)?
A: Its value is “no significant difference compared to the histamine model group”.

Q: How did the Renal pathological examination [1] turn out when `COc1cc(O)cc2c1cc([N+](=O)[O-])c1c(C(=O)O)cc3c(c12)OCO3` [AA-IVa, aristolochic acid IVa] was run?
A: The Renal pathological examination was “no toxic damage”.

Q: What about the “Amount of EB exudation compared to histamine model group (in words)” value ([2]; different doses (5 and 10 mg/kg by gavage for 3 days), P<0.001) of the same compound?
A: The value was “significantly decreased”.

Q: What about the “Ear blue staining compared with histamine model group” value ([2]; different doses (5 and 10 mg/kg by gavage for 3 days)) of the same compound?
A: Its value is “significantly reduced”.

Q: And the “Amount of EB exudation” value [2, 5]?
A: The value was 0.93 ± 0.20 µg.

Q: What about the “EB exudation reduction rate” value [2, 5] of the same compound?
A: Its value is 36.7%.

Q: And the “Amount of EB exudation” value [2, 4]?
A: The value was 0.82 ± 0.25 µg.

Q: And the “EB exudation reduction rate” value [2, 4]?
A: The value was 44.2%.

Q: What about the “Thickening … compared to model group” value ([3]; 5 mg/kg by gavage for 3 days) of the same compound?
A: The value was “significant reduction compared to the model group”.

Q: And the “Thickening … compared to model group” value ([3]; 10 mg/kg by gavage for 3 days)?
A: Its value is “significant reduction compared to the model group”.

Q: Which Death rate [1] does the source give for `COc1cccc2c1cc([N+](=O)[O-])c1c(C(=O)O)cc3c(c12)OCO3` [AA-I, Aristolochic Acid I] here?
A: Its Death rate is 70%.

Q: What about the “Number of dead animals” value [1] of the same compound?
A: The value was 7.

Q: What about the Renal pathological examination [1] of the same compound?
A: The Renal pathological examination was “diffuse tubular necrosis”.

Q: And the “Amount of EB exudation compared to histamine model group (in words)” value ([2]; 10 mg/kg by gavage for 3 days)?
A: Its value is “no significant difference”.

Q: What about the “Ear blue staining compared with histamine model group” value ([2]; 10 mg/kg by gavage for 3 days) of the same compound?
A: The value was “no significant difference”.

Q: And the “Amount of EB exudation” value [2, 4]?
A: Its value is 1.01 ± 0.28 µg.

Q: What about the “EB exudation reduction rate” value [2, 4] of the same compound?
A: The value was 14.4%.

Q: And the “Thickening … compared to model group” value ([3]; 10 mg/kg by gavage for 3 days)?
A: Its value is “no significant difference compared to the histamine model group”.
